Results: ChEMBL document CHEMBL3232938, “Design, synthesis, and biological evaluation of dihydroartemisinin-fluoroquinolone conjugates as a novel type of potential antitubercular agents” (2014)
In brackets after ≈: the same amount, converted by molar mass.

Experiments:
Format in all cases: functional
Salmonella [1] = assay: Antibacterial activity against Salmonella assessed as zone of inhibition at 2 ug/ml; conditions: read-out: DIZ
[2] = system: Mycobacterium tuberculosis; assay: Antibacterial activity against 0.5 ug/ml Mycobacterium tuberculosis H37Rv ATCC 27294 assessed as growth inhibition after 7 days by microtiter plate assay; conditions: H37Rv ATCC 27294, 168 h
Escherichia coli [3] = assay: Antibacterial activity against duck Escherichia coli assessed as zone of inhibition at 2 ug/ml; conditions: read-out: DIZ
Salmonella [4] = assay: Antibacterial activity against Salmonella assessed as growth inhibition after 7 days by microtiter plate assay; conditions: 168 h
Pseudomonas aeruginosa [5] = assay: Antibacterial activity against Pseudomonas aeruginosa assessed as zone of inhibition at 2 ug/ml; conditions: read-out: DIZ
Staphylococcus aureus [6] = assay: Antibacterial activity against Staphylococcus aureus assessed as zone of inhibition at 2 ug/ml; conditions: read-out: DIZ
[7] = system: Mycobacterium tuberculosis; assay: Antibacterial activity against 1 ug/ml Mycobacterium tuberculosis H37Rv ATCC 27294 assessed as growth inhibition after 7 days by microtiter plate assay; conditions: H37Rv ATCC 27294, 168 h
Pseudomonas aeruginosa [8] = assay: Antibacterial activity against Pseudomonas aeruginosa assessed as growth inhibition after 7 days by microtiter plate assay; conditions: 168 h
Staphylococcus aureus [9] = assay: Antibacterial activity against Staphylococcus aureus assessed as growth inhibition after 7 days by microtiter plate assay; conditions: 168 h
Escherichia coli [10] = assay: Antibacterial activity against Escherichia coli assessed as growth inhibition after 7 days by microtiter plate assay; conditions: 168 h
Escherichia coli [11] = assay: Antibacterial activity against Escherichia coli assessed as zone of inhibition at 2 ug/ml; conditions: read-out: DIZ
Escherichia coli [12] = assay: Antibacterial activity against duck Escherichia coli assessed as growth inhibition after 7 days by microtiter plate assay; conditions: 168 h
[13] = system: Mycobacterium tuberculosis; assay: Antibacterial activity against drug-sensitive 1 ug/ml Mycobacterium tuberculosis clinical isolate 760 assessed as growth inhibition after 7 days by microtiter plate assay; conditions: isolate 760, 168 h
[14] = system: Mycobacterium tuberculosis; assay: Antibacterial activity against drug-sensitive 1 ug/ml Mycobacterium tuberculosis clinical isolate 821 assessed as growth inhibition after 7 days by microtiter plate assay; conditions: isolate 821, 168 h
[15] = system: Mycobacterium tuberculosis; assay: Antibacterial activity against drug-sensitive 1 ug/ml Mycobacterium tuberculosis clinical isolate 753 assessed as growth inhibition after 7 days by microtiter plate assay; conditions: isolate 753, 168 h
[16] = system: Mycobacterium tuberculosis; assay: Antibacterial activity against drug-sensitive 1 ug/ml Mycobacterium tuberculosis clinical isolate 741 assessed as growth inhibition after 7 days by microtiter plate assay; conditions: isolate 741, 168 h
[17] = system: Mycobacterium tuberculosis; assay: Antibacterial activity against drug-sensitive 1 ug/ml Mycobacterium tuberculosis clinical isolate 758 assessed as growth inhibition after 7 days by microtiter plate assay; conditions: isolate 758, 168 h
[18] = system: Mycobacterium tuberculosis; assay: Antibacterial activity against Mycobacterium tuberculosis H37Rv ATCC 27294 assessed as growth inhibition after 7 days by microtiter plate assay; conditions: H37Rv ATCC 27294, 168 h

Row | Structure (SMILES) | zone of inhibition at 2 µg/mL (Salmonella [1]) | MIC [2] | zone of inhibition at 2 µg/mL (Escherichia coli [3]) | MIC (Salmonella [4]) | zone of inhibition at 2 µg/mL (Pseudomonas aeruginosa [5]) | zone of inhibition at 2 µg/mL (Staphylococcus aureus [6]) | MIC [7] | MIC (Pseudomonas aeruginosa [8]) | MIC (Staphylococcus aureus [9]) | MIC (Escherichia coli [10]) | zone of inhibition at 2 µg/mL (Escherichia coli [11]) | MIC (Escherichia coli [12]) | MIC [13] | MIC [14] | MIC [15] | MIC [16] | MIC [17] | MIC [18]
1 | C[C@H]1[C@@H](OCCN2CCN(c3cc4c(cc3F)c(=O)c(C(=O)O)cn4-c3ccc(F)cc3)CC2)O[C@@H]2O[C@@]3(C)CC[C@H]4[C@H](C)CC[C@@H]1[C@@]24OO3 | < 5 mm | > 2.87 µM | < 5 mm | 16 µg/mL (≈ 23 µM) | < 5 mm | < 5 mm | > 2.87 µM | 16 µg/mL (≈ 23 µM) | 16 µg/mL (≈ 23 µM) | 16 µg/mL (≈ 23 µM) | < 5 mm | 8 µg/mL (≈ 11.5 µM) | – | – | – | – | – | –
2 | C[C@H]1[C@@H](OCCCNC2CCN(c3c(F)cc4c(=O)c(C(=O)O)cn(C5CC5)c4c3Cl)C2)O[C@@H]2O[C@@]3(C)CC[C@H]4[C@H](C)CC[C@@H]1[C@@]24OO3 (stereo not given in full) | 10 mm | 0.181 µM (≈ 0.125 µg/mL) | < 5 mm | 16 µg/mL (≈ 23.2 µM) | < 5 mm | < 5 mm | 0.181 µM (≈ 0.125 µg/mL) | 8 µg/mL (≈ 11.6 µM) | 16 µg/mL (≈ 23.2 µM) | 8 µg/mL (≈ 11.6 µM) | 7 mm | 8 µg/mL (≈ 11.6 µM) | 0.125 µg/mL (≈ 0.181 µM) | 1 µg/mL (≈ 1.45 µM) | 0.125 µg/mL (≈ 0.181 µM) | 0.125 µg/mL (≈ 0.181 µM) | 0.125 µg/mL (≈ 0.181 µM) | –
3 | O=C(O)c1cn(C2CC2)c2cc(N3CCNCC3)c(F)cc2c1=O [CIPROFLOXACIN] | 24 mm | – | 42 mm | – | 18 mm | 9 mm | – | – | 8 µg/mL (≈ 24.1 µM) | – | – | – | – | – | – | – | – | 0.75 µM (≈ 0.249 µg/mL)
4 | C[C@H]1[C@@H](OC(=O)CCC(=O)NC2CCN(c3c(F)cc4c(=O)c(C(=O)O)cn(C5CC5)c4c3Cl)C2)O[C@@H]2O[C@@]3(C)CC[C@H]4[C@H](C)CC[C@@H]1[C@@]24OO3 (stereo not given in full) | 10 mm | 1.37 µM (≈ 1 µg/mL) | < 5 mm | 16 µg/mL (≈ 21.9 µM) | < 5 mm | < 5 mm | 2.73 µM (≈ 2 µg/mL) | 16 µg/mL (≈ 21.9 µM) | 8 µg/mL (≈ 10.9 µM) | 8 µg/mL (≈ 10.9 µM) | 9 mm | 16 µg/mL (≈ 21.9 µM) | – | – | – | – | – | –
5 | CCn1cc(C(=O)O)c(=O)c2cc(F)c(N3CCNCC3)cc21 [NORFLOXACIN] | 17 mm | – | 33 mm | 16 µg/mL (≈ 50.1 µM) | 16 mm | < 5 mm | – | 2 µg/mL (≈ 6.26 µM) | 16 µg/mL (≈ 50.1 µM) | 2 µg/mL (≈ 6.26 µM) | 18 mm | 4 µg/mL (≈ 12.5 µM) | 4 µg/mL (≈ 12.5 µM) | 4 µg/mL (≈ 12.5 µM) | 4 µg/mL (≈ 12.5 µM) | 8 µg/mL (≈ 25.1 µM) | 4 µg/mL (≈ 12.5 µM) | 6.26 µM (≈ 2 µg/mL)
6 | CCn1cc(C(=O)O)c(=O)c2cc(F)c(N3CCN(CCO[C@H]4O[C@@H]5O[C@@]6(C)CC[C@H]7[C@H](C)CC[C@@H]([C@H]4C)[C@@]57OO6)CC3)cc21 | < 5 mm | > 3.18 µM | < 5 mm | 16 µg/mL (≈ 25.4 µM) | < 5 mm | < 5 mm | > 3.18 µM | 16 µg/mL (≈ 25.4 µM) | 8 µg/mL (≈ 12.7 µM) | 16 µg/mL (≈ 25.4 µM) | < 5 mm | 16 µg/mL (≈ 25.4 µM) | – | – | – | – | – | –
7 | CCn1cc(C(=O)O)c(=O)c2cc(F)c(N3CCN(C(=O)CCC(=O)O[C@H]4O[C@@H]5O[C@@]6(C)CC[C@H]7[C@H](C)CC[C@@H]([C@H]4C)[C@@]57OO6)CC3)cc21 | < 5 mm | > 5.83 µM | < 5 mm | 16 µg/mL (≈ 23.3 µM) | < 5 mm | < 5 mm | > 5.83 µM | 16 µg/mL (≈ 23.3 µM) | 16 µg/mL (≈ 23.3 µM) | 16 µg/mL (≈ 23.3 µM) | 6 mm | 16 µg/mL (≈ 23.3 µM) | – | – | – | – | – | –
8 | C[C@H]1[C@@H](OCCN2CCN(c3cc4c(cc3F)c(=O)c(C(=O)O)cn4C3CC3)CC2)O[C@@H]2O[C@@]3(C)CC[C@H]4[C@H](C)CC[C@@H]1[C@@]24OO3 | < 5 mm | > 6.23 µM | < 5 mm | 16 µg/mL (≈ 24.9 µM) | < 5 mm | < 5 mm | > 6.23 µM | 16 µg/mL (≈ 24.9 µM) | 8 µg/mL (≈ 12.5 µM) | 16 µg/mL (≈ 24.9 µM) | < 5 mm | 8 µg/mL (≈ 12.5 µM) | – | – | – | – | – | –
9 | C[C@H]1[C@@H](O)O[C@@H]2O[C@@]3(C)CC[C@H]4[C@H](C)CC[C@@H]1[C@@]24OO3 [ARTENIMOL] | < 5 mm | – | < 5 mm | 16 µg/mL (≈ 56.3 µM) | < 5 mm | < 5 mm | – | 16 µg/mL (≈ 56.3 µM) | 16 µg/mL (≈ 56.3 µM) | 16 µg/mL (≈ 56.3 µM) | < 5 mm | 4 µg/mL (≈ 14.1 µM) | > 16 µg/mL | > 16 µg/mL | > 16 µg/mL | > 16 µg/mL | > 16 µg/mL | > 56 µM
